From ChEMBL document CHEMBL3885881, “DrugMatrix”

Organism: Rattus norvegicus
Assay: DrugMatrix - Regimen: Daily Repeat
Assay type: toxicity, organism-based, Sprague-Dawley
Parameters: regimen Daily Repeat, gender Male, age 6-8 weeks
Details: in vivo, po, route oral GAVAGE, vehicle 100 % WATER; for ABSOLUTE BASOPHIL / ABSOLUTE EOSINOPHIL / ABSOLUTE LYMPHOCYTE / ABSOLUTE MONOCYTE / ABSOLUTE SEGMENTED NEUTROPHIL / BASOPHIL / EOSINOPHIL / ERYTHROCYTE COUNT / HEMATOCRIT / HEMOGLOBIN / LEUKOCYTE COUNT / LYMPHOCYTE / MEAN CORPUSCULAR HEMOGLOBIN / MEAN CORPUSCULAR HEMOGLOBIN CONCENTRATION / MEAN CORPUSCULAR VOLUME / MONOCYTE / NEUTROPHIL / NUCLEATED RED BLOOD CELLS / PLATELET COUNT: tissue Blood; for ALANINE AMINOTRANSFERASE / ALBUMIN / ALKALINE PHOSPHATASE / ASPARTATE AMINOTRANSFERASE / BLOOD UREA NITROGEN / CARBON DIOXIDE / CHLORIDE / CHOLESTEROL / CREATINE PHOSPHOKINASE / CREATININE / GLUCOSE / LACTATE DEHYDROGENASE / LIPASE / PHOSPHORUS / POTASSIUM / SODIUM / TOTAL BILIRUBIN / TOTAL PROTEIN / URIC ACID: tissue Plasma
[1] = 14 mg/kg, 120 h, dose level Low, time 5 day
[2] = 1000 mg/kg, 72 h, dose level High, time 3 day
[3] = 1000 mg/kg, 120 h, dose level High, time 5 day

SMILES: C[C@H]1c2cccc(O)c2C(=O)C2=C(O)[C@]3(O)C(=O)C(C(N)=O)=C(O)[C@@H](N(C)C)[C@@H]3[C@@H](O)[C@@H]21.O [DOXYCYCLINE]
- ABSOLUTE BASOPHIL [1]: 0 CELLS/uL
- ABSOLUTE EOSINOPHIL [1]: 22.33 CELLS/uL
- ABSOLUTE LYMPHOCYTE [1]: 6462.67 CELLS/uL
- ABSOLUTE MONOCYTE [1]: 105.33 CELLS/uL
- ABSOLUTE SEGMENTED NEUTROPHIL [1]: 909.67 CELLS/uL
- BASOPHIL [1]: 0%
- EOSINOPHIL [1]: 0.33%
- ERYTHROCYTE COUNT [1]: 5.81 x10E6/uL
- HEMATOCRIT [1]: 36.47%
- HEMOGLOBIN [1]: 13.87 G/DL
- LEUKOCYTE COUNT [1]: 7.5 x10E3/uL
- LYMPHOCYTE [1]: 86.67%
- MEAN CORPUSCULAR HEMOGLOBIN [1]: 23.9 pg
- MEAN CORPUSCULAR HEMOGLOBIN CONCENTRATION [1]: 38.1 G/DL
- MEAN CORPUSCULAR VOLUME [1]: 62.77 fL
- MONOCYTE [1]: 1.33%
- NEUTROPHIL [1]: 11.67%
- NUCLEATED RED BLOOD CELLS [1]: 0.33 /100WBC
- PLATELET COUNT [1]: 1055 x10E3/uL
- ALANINE AMINOTRANSFERASE [1]: 56.67 u/L
- ALBUMIN [1]: 4.23 G/DL
- ALKALINE PHOSPHATASE [1]: 411.33 u/L
- ASPARTATE AMINOTRANSFERASE [1]: 92 u/L
- BLOOD UREA NITROGEN [1]: 17.67 mg/dL
- CARBON DIOXIDE [1]: 32 mmol/L
- CHLORIDE [1]: 101.67 MEQ/L
- CHOLESTEROL [1]: 67 mg/dL
- CREATINE PHOSPHOKINASE [1]: 551.33 u/L
- CREATININE [1]: 0.19 mg/dL
- GLUCOSE [1]: 154.67 mg/dL
- LACTATE DEHYDROGENASE [1]: 117 u/L
- LIPASE [1]: 11 u/L
- PHOSPHORUS [1]: 11.33 mg/dL
- POTASSIUM [1]: 6.02 MEQ/L
- SODIUM [1]: 147 MEQ/L
- TOTAL BILIRUBIN [1]: 0.1 mg/dL
- TOTAL PROTEIN [1]: 6.37 G/DL
- URIC ACID [1]: 0.8 mg/dL
- ABSOLUTE BASOPHIL [2]: 0 CELLS/uL
- ABSOLUTE EOSINOPHIL [2]: 0 CELLS/uL
- ABSOLUTE LYMPHOCYTE [2]: 7696.67 CELLS/uL
- ABSOLUTE MONOCYTE [2]: 0 CELLS/uL
- ABSOLUTE SEGMENTED NEUTROPHIL [2]: 736.67 CELLS/uL
- BASOPHIL [2]: 0%
- EOSINOPHIL [2]: 0%
- ERYTHROCYTE COUNT [2]: 5.23 x10E6/uL
- HEMATOCRIT [2]: 32.1%
- HEMOGLOBIN [2]: 12.57 G/DL
- LEUKOCYTE COUNT [2]: 8.43 x10E3/uL
- LYMPHOCYTE [2]: 92.33%
- MEAN CORPUSCULAR HEMOGLOBIN [2]: 24.07 pg
- MEAN CORPUSCULAR HEMOGLOBIN CONCENTRATION [2]: 39.17 G/DL
- MEAN CORPUSCULAR VOLUME [2]: 61.4 fL
- MONOCYTE [2]: 0%
- NEUTROPHIL [2]: 7.67%
- NUCLEATED RED BLOOD CELLS [2]: 0 /100WBC
- PLATELET COUNT [2]: 1333.67 x10E3/uL
- ALANINE AMINOTRANSFERASE [2]: 59.33 u/L
- ALBUMIN [2]: 4.03 G/DL
- ALKALINE PHOSPHATASE [2]: 294.67 u/L
- ASPARTATE AMINOTRANSFERASE [2]: 81 u/L
- BLOOD UREA NITROGEN [2]: 14.67 mg/dL
- CARBON DIOXIDE [2]: 32.33 mmol/L
- CHLORIDE [2]: 103 MEQ/L
- CHOLESTEROL [2]: 89 mg/dL
- CREATINE PHOSPHOKINASE [2]: 186 u/L
- CREATININE [2]: 0.18 mg/dL
- GLUCOSE [2]: 146 mg/dL
- LACTATE DEHYDROGENASE [2]: 161.33 u/L
- LIPASE [2]: 12.33 u/L
- PHOSPHORUS [2]: 10.9 mg/dL
- POTASSIUM [2]: 5.89 MEQ/L
- SODIUM [2]: 146.35 MEQ/L
- TOTAL BILIRUBIN [2]: 0.0667 mg/dL
- TOTAL PROTEIN [2]: 5.97 G/DL
- URIC ACID [2]: 1.2 mg/dL
- ABSOLUTE BASOPHIL [3]: 0 CELLS/uL
- ABSOLUTE EOSINOPHIL [3]: 19.67 CELLS/uL
- ABSOLUTE LYMPHOCYTE [3]: 6922.33 CELLS/uL
- ABSOLUTE MONOCYTE [3]: 67.67 CELLS/uL
- ABSOLUTE SEGMENTED NEUTROPHIL [3]: 1023.67 CELLS/uL
- BASOPHIL [3]: 0%
- EOSINOPHIL [3]: 0.33%
- ERYTHROCYTE COUNT [3]: 5.99 x10E6/uL
- HEMATOCRIT [3]: 36.73%
- HEMOGLOBIN [3]: 14.13 G/DL
- LEUKOCYTE COUNT [3]: 8.03 x10E3/uL
- LYMPHOCYTE [3]: 85.67%
- MEAN CORPUSCULAR HEMOGLOBIN [3]: 23.63 pg
- MEAN CORPUSCULAR HEMOGLOBIN CONCENTRATION [3]: 38.53 G/DL
- MEAN CORPUSCULAR VOLUME [3]: 61.37 fL
- MONOCYTE [3]: 1%
- NEUTROPHIL [3]: 13%
- NUCLEATED RED BLOOD CELLS [3]: 0 /100WBC
- PLATELET COUNT [3]: 1104.67 x10E3/uL
- ALANINE AMINOTRANSFERASE [3]: 56 u/L
- ALBUMIN [3]: 3.97 G/DL
- ALKALINE PHOSPHATASE [3]: 312 u/L
- ASPARTATE AMINOTRANSFERASE [3]: 84.33 u/L
- BLOOD UREA NITROGEN [3]: 21 mg/dL
- CARBON DIOXIDE [3]: 32 mmol/L
- CHLORIDE [3]: 99.67 MEQ/L
- CHOLESTEROL [3]: 87.33 mg/dL
- CREATINE PHOSPHOKINASE [3]: 239.67 u/L
- CREATININE [3]: 0.26 mg/dL
- GLUCOSE [3]: 138 mg/dL
- LACTATE DEHYDROGENASE [3]: 100.67 u/L
- LIPASE [3]: 11.33 u/L
- PHOSPHORUS [3]: 10.53 mg/dL
- POTASSIUM [3]: 6.12 MEQ/L
- SODIUM [3]: 146.5 MEQ/L
- TOTAL BILIRUBIN [3]: 0.13 mg/dL
- TOTAL PROTEIN [3]: 5.87 G/DL
- URIC ACID [3]: 0.97 mg/dL
